Where two headings read alike, the source gives them in different places.
Tests used:
Type in all cases: cell-based
[1] = test system: NCI-H460 (non-small cell lung) cancer cell line; experiment: In vitro cytotoxicity (GI50), Sulforhodamine B staining, NCI-H460; conditions: Homo sapiens, read-out: Drug concentration that produces 50% cell growth inhibition (GI50), H460 (NSCLC)
Method: (§1) In this example, the in vitro cytotoxicity, as measured by GI50 (50% of growth inhibition) values, was determined for representative lipophilic di(anticancer drug) compounds of the invention. The GI50 values of sebacate bis(7-ethylcamptothecin-10-yl)ester, sebacate bis(camptothecin-20-yl)ester, sebacate bis(paclitaxel-2′-yl)ester, and sebacate bis(docetaxel-2′-yl)ester, were measured in the following cancer cell lines: NCI-H460 (non-small cell lung), MDA-MB-231 (breast), […] (colon), and SKOV-3 (ovarian).
(§2) The study was performed using a solution of the lipophilic di(anticancer drug) compounds in DMSO (1 mM) diluted in the corresponding cell media. The cells were in contact with varying concentrations of the drug for a period of 48 hours. At the end of 48 hours, staining with Sulforhodamine B was performed to determine the number of viable cells and calculate the degree of cellular growth inhibition as compared to a control group.

[2] = test system: MDA-MB-231 (breast) cancer cell line; experiment: In vitro cytotoxicity (GI50), Sulforhodamine B staining, MDA-MB-231; conditions: Homo sapiens, read-out: Drug concentration that produces 50% cell growth inhibition (GI50), MDA-MB-231 (BREAST)
Method: as §1, §2

[3] = test system: HCT-116 (colon) cancer cell line; experiment: In vitro cytotoxicity (GI50), Sulforhodamine B staining, HCT-116; conditions: Homo sapiens, read-out: Drug concentration that produces 50% cell growth inhibition (GI50), HCT-116 (COLON)
Method: as §1, §2

[4] = test system: SKOV-3 (ovarian) cancer cell line; experiment: In vitro cytotoxicity (GI50), Sulforhodamine B staining, SKOV-3; conditions: Homo sapiens, read-out: Drug concentration that produces 50% cell growth inhibition (GI50), SKOV-3 (OVARIAN)
Method: as §1, §2

[5] = NCI-H460, H460 (NSCLC) cells, 48 hours contact, Sulforhodamine B
[6] = MDA-MB-231 (breast) cells, 48 hours contact, Sulforhodamine B
[7] = HCT-116 (colon) cells, 48 hours contact, Sulforhodamine B
[8] = SK-OV-3, SKOV-3 (ovarian) cells, 48 hours contact, Sulforhodamine B

For `CCc1c2c(nc3ccc(OC(=O)CCCCCCCCC(=O)Oc4ccc5nc6c(c(CC)c5c4)Cn4c-6cc5c(c4=O)COC(=O)[C@]5(O)CC)cc13)-c1cc3c(c(=O)n1C2)COC(=O)[C@]3(O)CC` [sebacate bis(7-ethylcamptothecin-10-yl), decanedioic acid bis[(4S)-4,11-diethyl-3,4,12,14-tetrahydro-4-hydroxy-3,14-dioxo-1H-pyrano[3′,4′:6,7]indolizino[1,2-b]quinolin-9-yl]ester], the GI50 ([1]; NCI-H460, 48 h) was 3.03 nM, the GI50 ([2]; MDA-MB-231, 48 h) was 303 nM and the GI50 ([3]; HCT-116, 48 h) was 4.58 nM. The GI50 ([4]; SK-OV-3, 48 h) was 8.53 nM.
In the case of `CC[C@@]1(OC(=O)CCCCCCCCC(=O)O[C@]2(CC)C(=O)OCc3c2cc2n(c3=O)Cc3cc4ccccc4nc3-2)C(=O)OCc2c1cc1n(c2=O)Cc2cc3ccccc3nc2-1` [sebacate bis(camptothecin-20-yl)ester, decanedioic acid bis[(4S)-4-ethyl-3,4,12,14-tetrahydro-3,14-dioxo-1H-pyrano[3′,4′:6,7]indolizino[1,2-b]quinolin-4-yl]ester], the GI50 [1, 5] is reported as 3150 nM, the GI50 [2, 6] is reported as 9250 nM and the GI50 [3, 7] is reported as 849 nM. The GI50 [4, 8] was 8540 nM.
In the case of `CC(=O)O[C@@]12CO[C@@H]1C[C@H](O)[C@@]1(C)C(=O)[C@H](O)C3=C(C)[C@@H](OC(=O)[C@H](OC(=O)CCCCCCCCC(=O)O[C@@H](C(=O)O[C@H]4C[C@@]5(O)[C@@H](OC(=O)c6ccccc6)[C@@H]6[C@]7(OC(C)=O)CO[C@@H]7C[C@H](O)[C@@]6(C)C(=O)[C@H](O)C(=C4C)C5(C)C)[C@@H](NC(=O)OC(C)(C)C)c4ccccc4)[C@@H](NC(=O)OC(C)(C)C)c4ccccc4)C[C@@](O)([C@@H](OC(=O)c4ccccc4)[C@H]21)C3(C)C` [sebacate bis(docetaxel-2′-yl)ester, decanedioic acid bis[(1R,2S)-1-[[[(2aR,4S,4aS,6R,9S,11S,12S,12aR,12bS)-12b-(acetyloxy)-12-(benzoyloxy)-2a,3,4,4a,5,6,9,10,11,12,12a,12b-dodecahydro-4,6,11-trihydroxy-4a,8,13,13-tetramethyl-5-oxo-7,11-methano-1H-cyclodeca[3,4]benz[1,2-b]oxet-9-yl]oxy]carbonyl]-2-[[(1,1-dimethylethoxy)carbonyl]amino]-2-phenylethyl]ester], the GI50 [1, 5] is reported as 16.7 nM, the GI50 [2, 6] is reported as 111 nM and the GI50 [3, 7] is reported as 20.9 nM. It also gave a GI50 [4, 8] of 135 nM.
`CC(=O)O[C@H]1C(=O)[C@@]2(C)[C@H]([C@H](OC(=O)c3ccccc3)[C@]3(O)C[C@H](OC(=O)[C@H](OC(=O)CCCCCCCCC(=O)O[C@@H](C(=O)O[C@H]4C[C@@]5(O)[C@@H](OC(=O)c6ccccc6)[C@@H]6[C@]7(OC(C)=O)CO[C@@H]7C[C@H](O)[C@@]6(C)C(=O)[C@H](OC(C)=O)C(=C4C)C5(C)C)[C@@H](NC(=O)c4ccccc4)c4ccccc4)[C@@H](NC(=O)c4ccccc4)c4ccccc4)C(C)=C1C3(C)C)[C@]1(OC(C)=O)CO[C@@H]1C[C@@H]2O` [sebacate bis(paclitaxel-2′-yl)ester, decanedioic acid bis[(1R,2S)-2-(benzoylamino)-1-[[[(2aR,4S,4aS,6R,9S,11S,12S,12aR,12bS)-6,12b-bis(acetyloxy)-12-(benzoyloxy)-2a,3,4,4a,5,6,9,10,11,12,12a, 12b-dodecahydro-4,11-dihydroxy-4a,8,13,13-tetramethyl-5-oxo-7,11-methano-1H-cyclodeca[3,4]benz[1,2-b]oxet-9-yl]oxy]carbonyl]-2-phenylethyl]ester] was tested, and the GI50 ([1]; NCI-H460, 48 h) was 83.2 nM, the GI50 ([2]; MDA-MB-231, 48 h) was 84.3 nM and the GI50 ([3]; HCT-116, 48 h) was 39.9 nM. For the same compound, the GI50 ([4]; SK-OV-3, 48 h) was 40.2 nM.
